#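 These data come from cells grown in 96-well plates and exposed to compound for 48 hours at five concentrations. At the TGI there is no net growth.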
# What was measured:
# Experiment in all cases: NCI tumour cell line growth inhibition, 48 h
# 786-0 renal = system: 786-0 renal
# A498 renal = system: A498 renal
# A549 NSCLC = system: A549 NSCLC
# ACHN renal = system: ACHN renal
# BT-549 breast = system: BT-549 breast
# CAKI-1 renal = system: CAKI-1 renal
# CCRF-CEM leukemia = system: CCRF-CEM leukemia
# COLO 205 colon = system: COLO 205 colon
# DU-145 prostate = system: DU-145 prostate
# EKVX NSCLC = system: EKVX NSCLC
# HCC-2998 colon = system: HCC-2998 colon
# HCT-116 colon = system: HCT-116 colon
# HL-60(TB) leukemia = system: HL-60(TB) leukemia
# HOP-62 NSCLC = system: HOP-62 NSCLC
# HOP-92 NSCLC = system: HOP-92 NSCLC
# HS 578T breast = system: HS 578T breast
# HT29 colon = system: HT29 colon
# IGROV1 ovarian = system: IGROV1 ovarian
# K-562 leukemia = system: K-562 leukemia
# KM12 colon = system: KM12 colon
# M14 melanoma = system: M14 melanoma
# MALME-3M melanoma = system: MALME-3M melanoma
# MCF7 breast = system: MCF7 breast
# MDA-MB-231 breast = system: MDA-MB-231 breast
# MDA-MB-435 = system: MDA-MB-435
# MDA-N = system: MDA-N
# MOLT-4 leukemia = system: MOLT-4 leukemia
# NCI-H226 lung = system: NCI-H226 lung
# NCI-H23 lung = system: NCI-H23 lung
# NCI-H460 lung = system: NCI-H460 lung
# NCI-H522 lung = system: NCI-H522 lung
# OVCAR-3 ovarian = system: OVCAR-3 ovarian
# OVCAR-4 ovarian = system: OVCAR-4 ovarian
# OVCAR-5 ovarian = system: OVCAR-5 ovarian
# OVCAR-8 ovarian = system: OVCAR-8 ovarian
# PC-3 prostate = system: PC-3 prostate
# RXF 393 renal = system: RXF 393 renal
# SF-268 CNS = system: SF-268 CNS
# SF-295 CNS = system: SF-295 CNS
# SF-539 CNS = system: SF-539 CNS
# SK-MEL-28 melanoma = system: SK-MEL-28 melanoma
# SK-MEL-5 melanoma = system: SK-MEL-5 melanoma
# SK-OV-3 ovarian = system: SK-OV-3 ovarian
# SN12C renal = system: SN12C renal
# SNB-19 CNS = system: SNB-19 CNS
# SNB-75 CNS = system: SNB-75 CNS
# SR leukemia = system: SR leukemia
# SW-620 colon = system: SW-620 colon
# T-47D breast = system: T-47D breast
# TK-10 renal = system: TK-10 renal
# U251 CNS = system: U251 CNS
# UACC-257 melanoma = system: UACC-257 melanoma
# UACC-62 melanoma = system: UACC-62 melanoma
# UO-31 renal = system: UO-31 renal
# HCT-15 colon = system: HCT-15 colon
# LOX IMVI melanoma = system: LOX IMVI melanoma
# NCI/ADR-RES ovarian = system: NCI/ADR-RES ovarian
# RPMI-8226 leukemia = system: RPMI-8226 leukemia
# SK-MEL-2 melanoma = system: SK-MEL-2 melanoma
structure (smiles),measurement,setting,value
C[C@]12CCC(=O)C=C1CC[C@@H]1C2CC[C@]2(C)c3nn(-c4ccc(F)cc4)nc3CC12 (stereo not given in full),TGI,786-0 renal,> 100 µM
same,TGI,A498 renal,> 100 µM
same,TGI,A549 NSCLC,> 100 µM
same,TGI,ACHN renal,> 100 µM
same,TGI,BT-549 breast,> 100 µM
same,TGI,CAKI-1 renal,> 100 µM
same,TGI,CCRF-CEM leukemia,> 100 µM
same,TGI,COLO 205 colon,> 100 µM
same,TGI,DU-145 prostate,> 100 µM
same,TGI,EKVX NSCLC,> 100 µM
same,TGI,HCC-2998 colon,> 100 µM
same,TGI,HCT-116 colon,> 100 µM
same,TGI,HL-60(TB) leukemia,> 100 µM
same,TGI,HOP-62 NSCLC,> 100 µM
same,TGI,HOP-92 NSCLC,> 100 µM
same,TGI,HS 578T breast,> 100 µM
same,TGI,HT29 colon,> 100 µM
same,TGI,IGROV1 ovarian,> 100 µM
same,TGI,K-562 leukemia,> 100 µM
same,TGI,KM12 colon,> 100 µM
same,TGI,M14 melanoma,> 100 µM
same,TGI,MALME-3M melanoma,> 100 µM
same,TGI,MCF7 breast,> 100 µM
same,TGI,MDA-MB-231 breast,> 100 µM
same,TGI,MDA-MB-435,> 100 µM
same,TGI,MDA-N,> 100 µM
same,TGI,MOLT-4 leukemia,> 100 µM
same,TGI,NCI-H226 lung,> 100 µM
same,TGI,NCI-H23 lung,> 100 µM
same,TGI,NCI-H460 lung,> 100 µM
same,TGI,NCI-H522 lung,> 100 µM
same,TGI,OVCAR-3 ovarian,> 100 µM
same,TGI,OVCAR-4 ovarian,> 100 µM
same,TGI,OVCAR-5 ovarian,> 100 µM
same,TGI,OVCAR-8 ovarian,> 100 µM
same,TGI,PC-3 prostate,> 100 µM
same,TGI,RXF 393 renal,> 100 µM
same,TGI,SF-268 CNS,> 100 µM
same,TGI,SF-295 CNS,> 100 µM
same,TGI,SF-539 CNS,> 100 µM
same,TGI,SK-MEL-28 melanoma,> 100 µM
same,TGI,SK-MEL-5 melanoma,> 100 µM
same,TGI,SK-OV-3 ovarian,> 100 µM
same,TGI,SN12C renal,> 100 µM
same,TGI,SNB-19 CNS,> 100 µM
same,TGI,SNB-75 CNS,> 100 µM
same,TGI,SR leukemia,> 100 µM
same,TGI,SW-620 colon,> 100 µM
same,TGI,T-47D breast,> 100 µM
same,TGI,TK-10 renal,> 100 µM
same,TGI,U251 CNS,> 100 µM
same,TGI,UACC-257 melanoma,> 100 µM
same,TGI,UACC-62 melanoma,> 100 µM
same,TGI,UO-31 renal,> 100 µM
Cc1cccc2c1Oc1cc(Cl)ccc1C2NC(=O)CCN1CCOCC1 (stereo not given),TGI,786-0 renal,> 100 µM
same,TGI,A549 NSCLC,> 100 µM
same,TGI,BT-549 breast,> 100 µM
same,TGI,CCRF-CEM leukemia,> 100 µM
same,TGI,COLO 205 colon,> 100 µM
same,TGI,DU-145 prostate,> 100 µM
same,TGI,EKVX NSCLC,> 100 µM
same,TGI,HCC-2998 colon,> 100 µM
same,TGI,HCT-116 colon,> 100 µM
same,TGI,HCT-15 colon,> 100 µM
same,TGI,HL-60(TB) leukemia,> 100 µM
same,TGI,HOP-62 NSCLC,> 100 µM
same,TGI,HOP-92 NSCLC,95.2 µM
same,TGI,HT29 colon,> 100 µM
same,TGI,IGROV1 ovarian,> 100 µM
same,TGI,K-562 leukemia,> 100 µM
same,TGI,KM12 colon,> 100 µM
same,TGI,LOX IMVI melanoma,> 100 µM
same,TGI,M14 melanoma,> 100 µM
same,TGI,MCF7 breast,> 100 µM
same,TGI,MDA-MB-231 breast,> 100 µM
same,TGI,MDA-MB-435,> 100 µM
same,TGI,MDA-N,> 100 µM
same,TGI,MOLT-4 leukemia,> 100 µM
same,TGI,NCI-H23 lung,> 100 µM
same,TGI,NCI-H460 lung,> 100 µM
same,TGI,NCI-H522 lung,> 100 µM
same,TGI,NCI/ADR-RES ovarian,> 100 µM
same,TGI,OVCAR-3 ovarian,> 100 µM
same,TGI,OVCAR-4 ovarian,> 100 µM
same,TGI,OVCAR-5 ovarian,> 100 µM
same,TGI,OVCAR-8 ovarian,> 100 µM
same,TGI,PC-3 prostate,> 100 µM
same,TGI,SF-268 CNS,> 100 µM
same,TGI,SF-295 CNS,> 100 µM
same,TGI,SF-539 CNS,> 100 µM
same,TGI,SK-MEL-28 melanoma,> 100 µM
same,TGI,SK-MEL-5 melanoma,> 100 µM
same,TGI,SK-OV-3 ovarian,> 100 µM
same,TGI,SN12C renal,> 100 µM
same,TGI,SNB-19 CNS,> 100 µM
same,TGI,SNB-75 CNS,> 100 µM
same,TGI,SR leukemia,> 100 µM
same,TGI,SW-620 colon,> 100 µM
same,TGI,T-47D breast,> 100 µM
same,TGI,TK-10 renal,> 100 µM
same,TGI,U251 CNS,> 100 µM
same,TGI,UACC-257 melanoma,> 100 µM
same,TGI,UACC-62 melanoma,> 100 µM
same,TGI,UO-31 renal,> 100 µM
CN(C)C(=O)NCCN1CCCCCc2ccccc21,TGI,A498 renal,> 100 µM
same,TGI,A549 NSCLC,> 100 µM
same,TGI,ACHN renal,> 100 µM
same,TGI,CAKI-1 renal,> 100 µM
same,TGI,CCRF-CEM leukemia,> 100 µM
same,TGI,COLO 205 colon,> 100 µM
same,TGI,DU-145 prostate,> 100 µM
same,TGI,EKVX NSCLC,> 100 µM
same,TGI,HCC-2998 colon,> 100 µM
same,TGI,HCT-116 colon,> 100 µM
same,TGI,HCT-15 colon,> 100 µM
same,TGI,HL-60(TB) leukemia,> 100 µM
same,TGI,HOP-62 NSCLC,> 100 µM
same,TGI,HOP-92 NSCLC,> 100 µM
same,TGI,HS 578T breast,> 100 µM
same,TGI,HT29 colon,> 100 µM
same,TGI,IGROV1 ovarian,> 100 µM
same,TGI,K-562 leukemia,> 100 µM
same,TGI,KM12 colon,> 100 µM
same,TGI,LOX IMVI melanoma,> 100 µM
same,TGI,M14 melanoma,> 100 µM
same,TGI,MALME-3M melanoma,> 100 µM
same,TGI,MCF7 breast,> 100 µM
same,TGI,MDA-MB-231 breast,> 100 µM
same,TGI,MDA-MB-435,> 100 µM
same,TGI,MDA-N,> 100 µM
same,TGI,MOLT-4 leukemia,> 100 µM
same,TGI,NCI-H226 lung,> 100 µM
same,TGI,NCI-H23 lung,> 100 µM
same,TGI,NCI-H460 lung,> 100 µM
same,TGI,NCI-H522 lung,> 100 µM
same,TGI,NCI/ADR-RES ovarian,> 100 µM
same,TGI,OVCAR-3 ovarian,> 100 µM
same,TGI,OVCAR-4 ovarian,> 100 µM
same,TGI,OVCAR-5 ovarian,> 100 µM
same,TGI,OVCAR-8 ovarian,> 100 µM
same,TGI,PC-3 prostate,> 100 µM
same,TGI,RPMI-8226 leukemia,> 100 µM
same,TGI,RXF 393 renal,> 100 µM
same,TGI,SF-268 CNS,> 100 µM
same,TGI,SF-295 CNS,> 100 µM
same,TGI,SF-539 CNS,> 100 µM
same,TGI,SK-MEL-2 melanoma,> 100 µM
same,TGI,SK-MEL-28 melanoma,> 100 µM
same,TGI,SK-MEL-5 melanoma,71.9 µM
same,TGI,SK-OV-3 ovarian,> 100 µM
same,TGI,SN12C renal,> 100 µM
same,TGI,SNB-19 CNS,> 100 µM
same,TGI,SR leukemia,> 100 µM
same,TGI,SW-620 colon,> 100 µM
same,TGI,T-47D breast,> 100 µM
same,TGI,TK-10 renal,> 100 µM
same,TGI,U251 CNS,> 100 µM
same,TGI,UACC-257 melanoma,> 100 µM
same,TGI,UACC-62 melanoma,> 100 µM
same,TGI,UO-31 renal,> 100 µM

# From PubChem BioAssay (NCI)
